This passage reports MIC and MBC results from ChEMBL document CHEMBL4002577, “Phenylthiazole antibiotics: A metabolism-guided approach to overcome short duration of action” (Eur J Med Chem, 2017).

Structures are written as SMILES. ≈ marks a conversion by molar mass, not a printed value. Some results are limits rather than exact numbers.

Common to all, as to format: functional
The subject of experiment [1] is Staphylococcus aureus. In words: Antibacterial activity against methicillin-resistant Staphylococcus aureus 2658 RCMB after 18 to 20 hrs by broth microdilution method. (Dilution methods test growth across graded concentrations, often in twofold steps.)
Experiment [2] concerns Staphylococcus aureus. In words: Antibacterial activity against mupirocin/rifampicin-resistant Staphylococcus aureus RN4220 NRS107 clinical isolate after 18 to 20 hrs by broth microdilution method.
Experiment [3] relates to Staphylococcus aureus. In words: Antibacterial activity against methicillin/ciprofloxacin/gentamicin/clindamycin-resistant Staphylococcus aureus USA200 NRS383 clinical isolate after 18 to 20 hrs by broth microdilution method.
Experiment [4] relates to Staphylococcus aureus. Nature of the experiment: Antibacterial activity against methicillin-resistant Staphylococcus aureus USA400 NRS123 clinical isolate after 18 to 20 hrs by broth microdilution method.
For experiment [5], the system named is Staphylococcus aureus. In words: Antibacterial activity against methicillin/ciprofloxacin/clindamycin-resistant Staphylococcus aureus USA100 NRS382 clinical isolate after 18 to 20 hrs by broth microdilution method.
The test system of experiment [6] is Staphylococcus aureus. In words: Antibacterial activity against methicillin/erythromycin/tetracycline-resistant Staphylococcus aureus USA300 NRS384 clinical isolate after 18 to 20 hrs by broth microdilution method.
Experiment [7] concerns Staphylococcus aureus. Nature of the experiment: Antibacterial activity against vancomycin-resistant Staphylococcus aureus VRSA4 clinical isolate after 18 to 20 hrs by broth microdilution method.
For experiment [8], the system named is Staphylococcus aureus. In words: Antibacterial activity against vancomycin-resistant Staphylococcus aureus VRSA10 clinical isolate after 18 to 20 hrs by broth microdilution method.
The subject of experiment [9] is Staphylococcus aureus. In words: Bactericidal activity against mupirocin/rifampicin-resistant Staphylococcus aureus RN4220 NRS107 clinical isolate after 24 hrs. Particulars: RN4220 NRS107, 24 h.
Experiment [10] deals with Staphylococcus aureus. In words: Bactericidal activity against methicillin/ciprofloxacin/gentamicin/clindamycin-resistant Staphylococcus aureus USA200 NRS383 clinical isolate after 24 hrs. Particulars: USA200 NRS383, 24 h.
Experiment [11] deals with Staphylococcus aureus. Nature of the experiment: Bactericidal activity against methicillin-resistant Staphylococcus aureus USA400 NRS123 clinical isolate after 24 hrs. Particulars: USA400 NRS123, 24 h.
Experiment [12] deals with Staphylococcus aureus. Nature of the experiment: Bactericidal activity against methicillin/ciprofloxacin/clindamycin-resistant Staphylococcus aureus USA100 NRS382 clinical isolate after 24 hrs. Particulars: USA100 NRS382, 24 h.
In experiment [13] the test system is Staphylococcus aureus. In words: Bactericidal activity against methicillin/erythromycin/tetracycline-resistant Staphylococcus aureus USA300 NRS384 clinical isolate after 24 hrs. Particulars: USA300 NRS384, 24 h.
The test system of experiment [14] is Staphylococcus aureus. In words: Bactericidal activity against vancomycin-resistant Staphylococcus aureus VRSA4 clinical isolate after 24 hrs. Particulars: VRSA4, 24 h.
For experiment [15], the system named is Staphylococcus aureus. Nature of the experiment: Bactericidal activity against vancomycin-resistant Staphylococcus aureus VRSA10 clinical isolate after 24 hrs. Particulars: VRSA10, 24 h.

One may read the MIC as the lowest concentration that inhibits growth of the organism. A high value points to a less susceptible organism. For orientation: MBC means the smallest concentration meeting the test's criterion for killing. On to `C/C=C/COc1ccc(-c2nc(C)c(/C(C)=N/NC(=N)N)s2)cc1`, for which the minimal inhibitory concentration (MIC) is 15.6 µg/mL (≈ 45.5 µM) against Staphylococcus aureus [1]; 32 µg/mL (≈ 93.2 µM) in the experiment with Staphylococcus aureus [2]; 16 µg/mL (≈ 46.6 µM) in the experiment on Staphylococcus aureus [3]; 32 µg/mL (≈ 93.2 µM) against Staphylococcus aureus [4]; 16 µg/mL (≈ 46.6 µM) against Staphylococcus aureus [5]; 32 µg/mL (≈ 93.2 µM) against Staphylococcus aureus [6]. Further, the minimal inhibitory concentration (MIC) against Staphylococcus aureus [7] and against Staphylococcus aureus [8] was 32 µg/mL (≈ 93.2 µM) throughout. Also, the MBC is 32 µg/mL (≈ 93.2 µM) with Staphylococcus aureus [9]; greater than 64 µg/mL with Staphylococcus aureus [10]; greater than 32 µg/mL in the experiment on Staphylococcus aureus [11]; 128 µg/mL (≈ 373 µM) with Staphylococcus aureus [12]; greater than 32 µg/mL against Staphylococcus aureus [13]; 32 µg/mL (≈ 93.2 µM) in the experiment with Staphylococcus aureus [14]. Moreover, the MBC against Staphylococcus aureus [15] is 32 µg/mL (≈ 93.2 µM).
Consider `CCOc1ccc(-c2nc(C)c(/C(C)=N/NC(=N)N)s2)cc1`, for which, in the experiment with Staphylococcus aureus [1], the MIC was greater than 30 µg/mL.
With `CCCCCCCCCOc1ccc(-c2nc(C)c(/C(C)=N/NC(=N)N)s2)cc1`, the minimum inhibitory concentration (MIC) with Staphylococcus aureus [1] was greater than 30 µg/mL; with Staphylococcus aureus [2] it was 16 µg/mL (≈ 38.5 µM); in the experiment with Staphylococcus aureus [3], 4 µg/mL (≈ 9.62 µM); with Staphylococcus aureus [4], 16 µg/mL (≈ 38.5 µM); against Staphylococcus aureus [6], 16 µg/mL (≈ 38.5 µM); with Staphylococcus aureus [7], 16 µg/mL (≈ 38.5 µM). In addition, inhibition of growth against Staphylococcus aureus [8] (MIC) required 16 µg/mL (≈ 38.5 µM). The minimum bactericidal concentration (MBC) against Staphylococcus aureus [9] came out at 16 µg/mL (≈ 38.5 µM); in the experiment with Staphylococcus aureus [10] it was 8 µg/mL (≈ 19.2 µM); against Staphylococcus aureus [11], 16 µg/mL (≈ 38.5 µM); in the experiment on Staphylococcus aureus [12] it was 8 µg/mL (≈ 19.2 µM); with Staphylococcus aureus [13], 16 µg/mL (≈ 38.5 µM); against Staphylococcus aureus [14], 16 µg/mL (≈ 38.5 µM). The molecule also had an MBC in the experiment on Staphylococcus aureus [15] of 16 µg/mL (≈ 38.5 µM).
`C/C(=N\NC(=N)N)c1sc(-c2ccc(OCCC(C)C)cc2)nc1C`: the MIC came out at 7.81 µg/mL (≈ 21.7 µM) in the experiment on Staphylococcus aureus [1]; 16 µg/mL (≈ 44.5 µM) against Staphylococcus aureus [2]; 8 µg/mL (≈ 22.3 µM) in the experiment on Staphylococcus aureus [3]; 16 µg/mL (≈ 44.5 µM) with Staphylococcus aureus [4]; 8 µg/mL (≈ 22.3 µM) against Staphylococcus aureus [5]; 16 µg/mL (≈ 44.5 µM) with Staphylococcus aureus [6]. Besides, the MIC against Staphylococcus aureus [7] and in the experiment on Staphylococcus aureus [8] was 16 µg/mL (≈ 44.5 µM) throughout. Moreover, the MBC with Staphylococcus aureus [9] is 16 µg/mL (≈ 44.5 µM); in the experiment with Staphylococcus aureus [10], 16 µg/mL (≈ 44.5 µM); against Staphylococcus aureus [11], greater than 32 µg/mL; in the experiment with Staphylococcus aureus [12], 8 µg/mL (≈ 22.3 µM); against Staphylococcus aureus [13], 32 µg/mL (≈ 89 µM); against Staphylococcus aureus [14], 32 µg/mL (≈ 89 µM). The molecule also registered an MBC against Staphylococcus aureus [15] of 32 µg/mL (≈ 89 µM).
For the molecule `CCCCCOc1ccc(-c2nc(C)c(/C(C)=N/NC(=N)N)s2)cc1`, the minimal inhibitory concentration (MIC) against Staphylococcus aureus [1] worked out at 1.95 µg/mL (≈ 5.42 µM); against Staphylococcus aureus [3] it was 64 µg/mL (≈ 178 µM). Further, the minimum bactericidal concentration (MBC) against Staphylococcus aureus [10] is greater than 64 µg/mL.
For `CCC(CC)COc1ccc(-c2nc(C)c(/C(C)=N/NC(=N)N)s2)cc1`, the minimal inhibitory concentration (MIC) with Staphylococcus aureus [1] turned out to be 7.81 µg/mL (≈ 20.9 µM); in the experiment on Staphylococcus aureus [3], 32 µg/mL (≈ 85.7 µM); against Staphylococcus aureus [5], 32 µg/mL (≈ 85.7 µM). Besides, the minimum bactericidal concentration (MBC) is greater than 64 µg/mL against Staphylococcus aureus [10] and 32 µg/mL (≈ 85.7 µM) against Staphylococcus aureus [12].
In turn, `C/C(=N\NC(=N)N)c1sc(-c2ccc(OCC3CCC3)cc2)nc1C` yielded a minimal inhibitory concentration (MIC) against Staphylococcus aureus [1] greater than 30 µg/mL.
With `CC(=O)NC[C@H]1CN(c2ccc(N3CCOCC3)c(F)c2)C(=O)O1` [LINEZOLID], the MBC with Staphylococcus aureus [9] was found to be 32 µg/mL (≈ 94.9 µM); against Staphylococcus aureus [10], 32 µg/mL (≈ 94.9 µM); in the experiment with Staphylococcus aureus [11], 32 µg/mL (≈ 94.9 µM); in the experiment with Staphylococcus aureus [12], 16 µg/mL (≈ 47.4 µM); in the experiment with Staphylococcus aureus [13], 16 µg/mL (≈ 47.4 µM); with Staphylococcus aureus [14] it was 8 µg/mL (≈ 23.7 µM). Further, in the experiment on Staphylococcus aureus [15], the minimum bactericidal concentration (MBC) came to 16 µg/mL (≈ 47.4 µM).
For `C/C(=N\NC(=N)N)c1sc(-c2ccc(OCC(C)C)cc2)nc1C`, the minimum inhibitory concentration (MIC) against Staphylococcus aureus [1] was determined as 15.6 µg/mL (≈ 45.2 µM); in the experiment on Staphylococcus aureus [2], 32 µg/mL (≈ 92.6 µM); against Staphylococcus aureus [3] it was 8 µg/mL (≈ 23.2 µM); in the experiment on Staphylococcus aureus [4] it was 16 µg/mL (≈ 46.3 µM); in the experiment with Staphylococcus aureus [5], 8 µg/mL (≈ 23.2 µM); against Staphylococcus aureus [6] it was 16 µg/mL (≈ 46.3 µM). The MIC in the experiment with Staphylococcus aureus [7] and in the experiment on Staphylococcus aureus [8] was 16 µg/mL (≈ 46.3 µM) throughout. Moreover, the MBC in the experiment with Staphylococcus aureus [9] was 32 µg/mL (≈ 92.6 µM); in the experiment on Staphylococcus aureus [10], 8 µg/mL (≈ 23.2 µM); against Staphylococcus aureus [11], greater than 32 µg/mL; with Staphylococcus aureus [12] it was 16 µg/mL (≈ 46.3 µM); against Staphylococcus aureus [13] it was 32 µg/mL (≈ 92.6 µM); against Staphylococcus aureus [14], 32 µg/mL (≈ 92.6 µM). Besides, in the experiment with Staphylococcus aureus [15], the MBC was found to be 32 µg/mL (≈ 92.6 µM).
The molecule `CCCOc1ccc(-c2nc(C)c(/C(C)=N/NC(=N)N)s2)cc1` returned an MIC against Staphylococcus aureus [1] greater than 30 µg/mL.
